We go through three compounds from ChEMBL document CHEMBL4364342, “Structural and Molecular Insight into Resistance Mechanisms of First Generation cMET Inhibitors” (ACS Med Chem Lett, 2019).

Structures are written as SMILES.

The IC50 is the concentration needed to halve the response being measured. The term GI50 denotes the concentration at which growth is held to half of that of the control.

Experiment [1] has as its target T1, Hepatocyte growth factor receptor (Homo sapiens, UniProt P08581). The experiment is described as follows: Inhibition of c-Met phosphorylation at Tyr 1234/Tyr1235 residues in human NCI-H1993 cells incubated for 4 hrs by HTRF assay. The experiment is classed as cell-based. For orientation: Time-resolved FRET reads energy transfer from a long-lived donor to a nearby acceptor.

Experiment [2] deals with T2, Hepatocyte growth factor receptor (Homo sapiens, UniProt P08581, D1228V). As to the kind of experiment: Inhibition of c-MET D1228V mutant phosphorylation at Tyr1234/Tyr1235 residues in CRISPR/Cas9 modified human NCI-H1993 cells incubated for 4 hrs by HTRF assay. The format is cell-based.
The target of experiment [3] is T1, Hepatocyte growth factor receptor. As to the kind of experiment: Inhibition of wild type N-terminal NH-tagged and avi-tagged dephosphorylated c-MET (956 to 1390 residues) (unknown origin) expressed in sf21 cells using poly (Glu,Tyr) as substrate measured after 60 mins by ADP-Glo kinase assay. On the technique in general: In ADP-Glo the light output rises with the ADP produced.

In experiment [4] the target is T2, Hepatocyte growth factor receptor. As to the kind of experiment: Inhibition of N-terminal NH-tagged and avi-tagged dephosphorylated c-MET D1228V mutant (956 to 1390 residues) (unknown origin) expressed in sf21 cells using poly (Glu,Tyr) as substrate measured after 60 mins by ADP-Glo kinase assay.
In experiment [5] the test system is NCI-H1993. The experiment is described as follows: Growth inhibition of wild type human NCI-H1993 cells incubated for 3 days by cell titer-glo luminescent cell viability assay. The note with it: NCI-H1993, 72 h. The experiment is classed as functional. Background: In ATP-based viability assays light output follows the ATP content of the culture.
Experiment [6] has as its system NCI-H1993. The experiment is described as follows: Growth inhibition of CRISPR/Cas9 modified human NCI-H1993 cells harboring cMET D1228V mutant incubated for 3 days by cell titer-glo luminescent cell viability assay. The experiment is classed as functional. The conditions noted are these: NCI-H1993, 72 h.
For experiment [7], the system named is NCI-H1993. The experiment is described as follows: Resistance index, ratio of GI50 for CRISPR/Cas9 modified human NCI-H1993 cells harboring cMET D1228V mutant to GI50 for wild type human NCI-H1993 cells by cell-titer glo luminescent cell viability assay. The format is functional.

`CCOc1ccn(-c2ccc(F)cc2)c(=O)c1C(=O)Nc1ccc(Oc2ccnc(N)c2Cl)c(F)c1` [BMS-777607]: the IC50 in experiment [1] is 12.3 to 214 nM; in experiment [2], 12.3 to 214 nM; in experiment [3], less than 2.51 nM; in experiment [4], less than 2.51 nM.

`COc1cc2c(Oc3ccc(NC(=O)C4(C(=O)Nc5ccc(F)cc5)CC4)cc3F)ccnc2cc1OCCCN1CCOCC1` [FORETINIB]: the concentration for 50% growth inhibition (GI50) with NCI-H1993 [5] was 61.7 nM; in the experiment with NCI-H1993 [6], 52.5 nM.

Consider `C[C@@H](c1ccc2nccn2c1)n1nnc2ncc(-c3cnn(C)c3)nc21` [SAVOLITINIB], for which the GI50 with NCI-H1993 [5] is 9.33 nM; in the experiment on NCI-H1993 [6] it was 8320 nM. The IC50 in experiment [1] is 2 nM; in experiment [2], more than 31600 nM; in experiment [3], less than 2.51 nM; in experiment [4], 676 nM. The RatioGI50 in the experiment on NCI-H1993 [7] is more than 800.
